Where two headings read alike, the source gives them in different places.
Legend:
[1] = system: EBC-1 lung cancer cell line; test: EBC-1 cell proliferation, CellTiter-Glo assay; assay type: cell-based; details: Ebc-1 cell viability, CTG assay, 5 days of treatment, read-out: CTG 5 day Ebc1 GI50
Description: (§1) The ability of the BCL-xL degrader low molecular weight compounds to inhibit cell proliferation and survival was assessed using the Promega CellTiter-Glo® proliferation assay on the EBC-1 lung cancer cell line (RCB1965, obtained from RIKEN.) The cells were cultured in media that is optimal for their growth at 5% CO2, 37° C. in a tissue culture incubator. Prior to seeding for the proliferation assay, the cells were split at least 2 days before the assay to ensure optimal growth density. On the day of seeding, cells were lifted off tissue culture flasks using 0.25% trypsin. Cell viability and cell density were determined using a cell counter (Vi-Cell XR Cell Viability Analyzer, Beckman Coulter). Cells with higher than 85% viability were seeded in white clear bottom 384-well plates (Greiner cat #781098) at a density of 1000 cells per well in 50 μL of standard growth media. Plates were incubated at 37° C. overnight in a tissue culture incubator.
The BCL-xL degrader low molecular weight compounds were prepared to desired concentrations. A series of 10 dilutions were made for each prepared compound. The prepared compounds were then added to the cells resulting in final concentrations of 0.508 nM-10 μM. An acoustic transfer device (Echo555, Beckman Coulter) was used to add the compounds to the cells. Each treatment was tested in triplicate assay plates. Plates were incubated at 37° C. overnight or for 5 days in a tissue culture incubator. The ability of the compounds to inhibit cell proliferation and survival was assessed using the Promega CellTiter-Glo® proliferation assay. Plates were incubated at room temperature for 20 minutes to stabilize luminescent signals prior to reading using a multimode plate reader (PHERAstar FSX Microplate Reader, BMG Labtech).
To evaluate the effect of the compound treatments, luminescent counts of untreated cells were taken the day after seeding (Day 0 readings), and after 5 days of treatment (Day 5 readings). The Day 5 readings of the untreated cells were compared to the Day 0 readings. Assays with at least one cell doubling during the incubation period were considered valid. To evaluate the effect of the drug treatments, luminescent counts from wells containing untreated cells (100% viability) were used to normalize treated samples. The concentrations of treatment required to inhibit 50% of cell growth or survival ([…]) were calculated using a four parameter logistic regression equation.

[2] = molecular target: T1, HiBiT-tagged BCL-xL (Homo sapiens, UniProt Q07817); test: NCI-H1650 BCL-xL protein levels, Nano-Glo HiBiT Lytic Detection; assay type: cell-based; details: NCI-H1650 expressing HiBiT-tagged BCL-xL, overnight incubation, read-out: Bcl-xl HIBIT NCIH1650 DC50
T1 construct: expressed in transfected cells; host or cells: NCI-H1650 (ATCC No. CRL-5883), engineered HiBiT cell line
T1 sequence (Q07817 whole entry): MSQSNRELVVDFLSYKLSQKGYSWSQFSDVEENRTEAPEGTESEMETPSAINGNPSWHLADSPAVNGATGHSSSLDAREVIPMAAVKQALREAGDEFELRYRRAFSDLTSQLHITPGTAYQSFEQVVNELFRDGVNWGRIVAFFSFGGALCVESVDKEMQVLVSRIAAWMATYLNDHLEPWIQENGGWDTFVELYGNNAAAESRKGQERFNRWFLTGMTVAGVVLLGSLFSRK
Description: as §1, with “degrade BCL-xL protein” for “inhibit cell proliferation and survival”, “Nano-Glo® HiBiT Lytic Detection System. The NCI-H1650 (ATCC No. CRL-5883) was engineered to express HiBiT-tagged BCL-xL. The NCI-H1650 HiBiT” for “CellTiter-Glo® proliferation assay on the EBC-1 lung cancer”, “was” for “(RCB1965, obtained from RIKEN.) The cells were”, “protein level” for “proliferation”, “5000” for “1000”, “30” for “50”
The BCL-xL degrader low molecular weight compounds were prepared to desired concentrations. A series of 10 dilutions were made for each prepared compound. The prepared compounds were then added to the cells resulting in final concentrations of 0.508 nM-10 μM. An acoustic transfer device (Echo555, Beckman Coulter) was used to add the compounds to the cells. Each treatment was tested in triplicate assay plates. Plates were incubated at 37° C. overnight in a tissue culture incubator.
BCL-xL degradation was assessed through the addition of 30 μL of Nano-Glo® HiBiT Lytic Reagent (Promega, cat #N3040), a reagent which lyses cells and contains a furimazine substrate and the large subunit (LgBiT) used in NanoLuc® Binary Technology. The LgBiT subunit having high affinity to a HiBiT-tagged protein will bind HiBiT, if present, resulting in complex formation of a luminescent NanoBiT® enzyme. This reaction will emit a luminescent signal proportional to the amount of HiBiT-tagged BCL-xL present in the cell lysate. Plates were incubated at room temperature for 20 minutes to stabilize luminescent signals prior to reading using a luminescence reader (PHERAstar FSX Microplate Reader, BMG Labtech).
To evaluate the effect of the drug treatments, luminescent counts from wells containing untreated cells (100% HiBiT-tagged BCL-xL) were used to normalize treated samples. The concentrations of treatment required to inhibit 50% were calculated using a four parameter logistic regression equation.

| SMILES | GI50 ([1]; Homo sapiens, 120 h) | DC50 [2] | GI50 [1] |
| --- | --- | --- | --- |
| Cc1cc(N(CCCCN(C)C(=O)CCCCCCCCCCCCSC(C)(C)[C@H](NC(=O)C2(F)CC2)C(=O)N2C[C@H](O)C[C@H]2C(=O)NCc2ccc(-c3scnc3C)cc2)c2ccc(-c3cnn(CC45CC6(C)CC(C)(C4)CC(OCCN(C)C)(C6)C5)c3C)c(C(=O)O)n2)nnc1Nc1nc2ccccc2s1 [Example 127, 6-[[6-(1,3-benzothiazol-2-ylamino)-5-methyl-pyridazin-3-yl]-[4-[13-[(2R)-2-[(1-fluorocyclopropanecarbonyl)amino]-3-[(2S,4R)-4-hydroxy-2-[[4-(4-methylthiazol-5-yl)phenyl]methylcarbamoyl]pyrrolidin-1-yl]-1,1-dimethyl-3-oxo-propyl]sulfanyltridecanoyl-methyl-amino]butyl]amino]-3-[1-[[3-[2-(dimethylamino)ethoxy]-5,7-dimethyl-1-adamantyl]methyl]-5-methyl-pyrazol-4-yl]pyridine-2-carboxylic acid] | 462 nM | 33 nM | – |
| Cc1ncsc1-c1ccc([C@H](C)NC(=O)[C@@H]2C[C@@H](O)CN2C(=O)[C@@H](NC(=O)CCOCCOCCNC(=O)c2nc(N3CCCc4c3nnc(Nc3nc5ccccc5s3)c4C)ccc2-c2cnn(CC34CC5(OCCN6CCCC6)C[C@](C)(C3)C[C@](C)(C4)C5)c2C)C(C)(C)C)cc1 [Example 158, 6-(3-(benzo[d]thiazol-2-ylamino)-4-methyl-6,7-dihydropyrido[2,3-c]pyridazin-8(5H)-yl)-3-(1-(((1r,3R,5S,7s)-3,5-dimethyl-7-(2-(pyrrolidin-1-yl)ethoxy)adamantan-1-yl)methyl)-5-methyl-1H-pyrazol-4-yl)-N-(2-(2-(3-(((S)-1-((2S,4R)-4-hydroxy-2-(((S)-1-(4-(4-methylthiazol-5-yl)phenyl)ethyl)carbamoyl)pyrrolidin-1-yl)-3,3-dimethyl-1-oxobutan-2-yl)amino)-3-oxopropoxy)ethoxy)ethyl)picolinamide] | – | > 1670 nM | 10 nM |
| Cc1ncsc1-c1ccc([C@H](C)NC(=O)[C@@H]2C[C@@H](O)CN2C(=O)[C@@H](NC(=O)CCOCCOCCOCCNC(=O)c2nc(N3CCCc4c3nnc(Nc3nc5ccccc5s3)c4C)ccc2-c2cnn(CC34CC5(C)CC(C)(C3)CC(OCCN3CCCC3)(C5)C4)c2C)C(C)(C)C)cc1 [Example 159, 6-(3-(benzo[d]thiazol-2-ylamino)-4-methyl-6,7-dihydropyrido[2,3-c]pyridazin-8(5H)-yl)-3-(1-(((1r,3R,5S,7s)-3,5-dimethyl-7-(2-(pyrrolidin-1-yl)ethoxy)adamantan-1-yl)methyl)-5-methyl-1H-pyrazol-4-yl)-N—((S)-14-((2S,4R)-4-hydroxy-2-(((S)-1-(4-(4-methylthiazol-5-yl)phenyl)ethyl)carbamoyl)pyrrolidine-1-carbonyl)-15,15-dimethyl-12-oxo-3,6,9-trioxa-13-azahexadecyl)picolinamide] | 8 nM | > 1670 nM | – |
| Cc1ncsc1-c1ccc([C@H](C)NC(=O)[C@@H]2C[C@@H](O)CN2C(=O)[C@@H](NC(=O)CCOCCOCCOCCN(C)C(=O)c2nc(N3CCCc4c3nnc(Nc3nc5ccccc5s3)c4C)ccc2-c2cnn(CC34CC5(C)CC(C)(C3)CC(OCCN3CCCC3)(C5)C4)c2C)C(C)(C)C)cc1 [Example 160, 6-(3-(benzo[d]thiazol-2-ylamino)-4-methyl-6,7-dihydropyrido[2,3-c]pyridazin-8(5H)-yl)-3-(1-(((1r,3R,5S,7s)-3,5-dimethyl-7-(2-(pyrrolidin-1-yl)ethoxy)adamantan-1-yl)methyl)-5-methyl-1H-pyrazol-4-yl)-N—((S)-14-((2S,4R)-4-hydroxy-2-(((S)-1-(4-(4-methylthiazol-5-yl)phenyl)ethyl)carbamoyl)pyrrolidine-1-carbonyl)-15,15-dimethyl-12-oxo-3,6,9-trioxa-13-azahexadecyl)-N-methylpicolinamide] | 58 nM | 2 nM | – |
| Cc1ncsc1-c1ccc([C@H](C)NC(=O)[C@@H]2C[C@@H](O)CN2C(=O)C(NC(=O)CCCCCCCCN(C)C(=O)c2nc(N3CCCc4c3nnc(Nc3nc5ccccc5s3)c4C)ccc2-c2cnn(CC34CC5(C)CC(C)(C3)CC(OCCN3CCCC3)(C5)C4)c2C)C(C)(C)C)cc1 (stereo partly drawn) [Example 161, 6-(3-(benzo[d]thiazol-2-ylamino)-4-methyl-6,7-dihydropyrido[2,3-c]pyridazin-8(5H)-yl)-3-(1-(((1r,3R,5S,7s)-3,5-dimethyl-7-(2-(pyrrolidin-1-yl)ethoxy)adamantan-1-yl)methyl)-5-methyl-1H-pyrazol-4-yl)-N-(9-(((S)-1-((2S,4R)-4-hydroxy-2-(((S)-1-(4-(4-methylthiazol-5-yl)phenyl)ethyl)carbamoyl)pyrrolidin-1-yl)-3,3-dimethyl-1-oxobutan-2-yl)amino)-9-oxononyl)-N-methylpicolinamide] | 8 nM | 0.4 nM | – |
| Cc1ncsc1-c1ccc([C@H](C)NC(=O)[C@@H]2C[C@@H](O)CN2C(=O)[C@@H](NC(=O)[C@H]2CC[C@H](NC(=O)c3nc(N4CCCc5c4nnc(Nc4nc6ccccc6s4)c5C)ccc3-c3cnn(CC45CC6(C)CC(C)(C4)CC(OCCN4CCCC4)(C6)C5)c3C)CC2)C(C)(C)C)cc1 [Example 162, 6-(3-(benzo[d]thiazol-2-ylamino)-4-methyl-6,7-dihydropyrido[2,3-c]pyridazin-8(5H)-yl)-3-(1-(((1r,3R,5S,7s)-3,5-dimethyl-7-(2-(pyrrolidin-1-yl)ethoxy)adamantan-1-yl)methyl)-5-methyl-1H-pyrazol-4-yl)-N-((1S,4R)-4-(((S)-1-((2S,4R)-4-hydroxy-2-(((S)-1-(4-(4-methylthiazol-5-yl)phenyl)ethyl)carbamoyl)pyrrolidin-1-yl)-3,3-dimethyl-1-oxobutan-2-yl)carbamoyl)cyclohexyl)picolinamide] | 222 nM | > 1670 nM | – |
| Cc1ncsc1-c1ccc([C@H](C)NC(=O)[C@@H]2C[C@@H](O)CN2C(=O)[C@@H](NC(=O)C[C@H]2CC[C@@H](NC(=O)c3nc(N4CCCc5c4nnc(Nc4nc6ccccc6s4)c5C)ccc3-c3cnn(CC45CC6(C)CC(C)(C4)CC(OCCN4CCCC4)(C6)C5)c3C)CC2)C(C)(C)C)cc1 [Example 163, 6-(3-(benzo[d]thiazol-2-ylamino)-4-methyl-6,7-dihydropyrido[2,3-c]pyridazin-8(5H)-yl)-3-(1-(((1r,3R,5S,7s)-3,5-dimethyl-7-(2-(pyrrolidin-1-yl)ethoxy)adamantan-1-yl)methyl)-5-methyl-1H-pyrazol-4-yl)-N-((1R,4S)-4-(2-(((S)-1-((2S,4R)-4-hydroxy-2-(((S)-1-(4-(4-methylthiazol-5-yl)phenyl)ethyl)carbamoyl)pyrrolidin-1-yl)-3,3-dimethyl-1-oxobutan-2-yl)amino)-2-oxoethyl)cyclohexyl)picolinamide] | 22 nM | 6 nM | – |
